Source: EP0116208A1, “Mitomycin analogues” (KYOWA HAKKO KOGYO CO., LTD., priority 1982, dated 1984)

Columns and labels:
Acute toxicity (LD50) = experiment: Acute toxicity (LD50); design: species or system mice; conditions: mouse, in vivo; death ratio observed for 14 days; Behrens-Korber's method
Source text: (3) Acute toxicity (LD50):
On each occasion, the test compound was given to the test animal.

Sarcoma 180 solid tumour = experiment: Effect on Sarcoma 180 solid tumour (ED50, chemotherapeutic index); assay type: in vivo, ddy mice; conditions: Anti-tumour activity; ratio of LD50 to ED50; ED50 = dose giving T/C 0.5 of Sarcoma 180 solid tumour volume, intraperitoneal injection
Source text: (1) Effect on Sarcoma 180 solid tumour:
5 x 10^6 cells of Sarcoma 180 solid tumour were innoculated into the abdominal cavities of groups of ddy mice, each group consisting of 5 mice. 7..days after this, on each occasion, the tumour cells were collected from the ascites of the mouse. The cells were washed with a sterilized physiological sodium chloride solution and used to prepare a cell suspension containing 5 x 10^7 cells per ml of a sterilized physiological solution of sodium chloride, of which 0.1 ml was injected under the skin of the right armpit of a ddy male mouse (body weight 20 ±2 g). A test compound was dissolved in a physiological solution of sodium chloride or a similar solution containing Tween 80 (a surfactant commercially available from Atlas Chemical Industries, Inc., U.S.A.). 24 hours after the implantation of the tumours cells, the test compound (0.1 to 0.2 ml) was injected into the test mice intraperitoneally. In order to determine the antitumour activity of the test compound, 7 days after the implantation of the tumour cells, on each occasion, the major axis (a) and minor axis (b) of the tumour were measured to calculate the volume of the tumour ['a' x ^Ib'/2]. The anti-tumour effect was evaluated by the ratio of the tumour volume in the test animals (T) to the corresponding volume of the control (untreated) animals (C).
(2) Determination of ED50.
A dose capable of reducing the volume of a Sarcoma 180 solid tumour to 50% of the corresponding volume of the untreated group on average was defined as the ED50. T/C ratios and the doses were respectively plotted on the ordinate in arithmetic scale and abscissa in logarithmic scale on graph paper, from which the relationship between the doses and the T/C ratios was calculated as a straight line by the least square method. From the straight tropic line thus-obtained, the dose corresponding to a T/C of 0.5 was determined.

[1] = Effect upon the number of peripheral leukocytes (WBC 4000); assay type: in vivo; conditions: mouse, Toxicity against bone marrow, WBC 4000 = dose giving 4000 leukocytes/mm3, Sarcoma 180 bearing mice, read-out: WBC 4000/ ED50
Method: (5) Effect upon the number of peripheral leukocytes:
5 x 10^6 cells of Sarcoma 180 solid tumour were implanted under the skin of each mouse at the right armpit. 24 hours after this, venous blood (0.02 ml) was collected from the eyepit of the mouse and suspended in Cell-Kit Seven solution (10 ml; commercially available from Toa Iryo Denshi K.K., Japan).
To the suspension, a drop of saponin solution was added to dissolve the red cells and the number of leukocytes were counted using a microcell counter. The number of leukocytes and the corresponding dose were respectively plotted on the ordinate in arithmetic scale and on the abscissa in logarithmic scale on graph paper to investigate the relationship between dosage and the number of peripherical leukocytes. A dose capable of giving 4000 leukocytes/mm3 was defined as WBC 4000, which corresponded to about 1/2 the number of peripherical leukocytes in normal mice.
The greater the ratio of WBC 4000 to ED50 the smaller the decrease in the number of peripherical leukocytes viz. the lower the toxicity against bone marrow in the area of the effective dose.

Row | Structure (SMILES) | LD50 at 336 h (Acute toxicity (LD50)) | C.I. (Sarcoma 180 solid tumour) | selectivity ratio [1]
1 | CC1=C(NC2CSSC2)C(=O)C2=C(C1=O)N1CC3C(N3C)C1(O)C2COC(N)=O (stereo not drawn) [l, 7-N-(1,2-dithiolan-4-yl)mitomycin D] | 35.6 mg/kg | – | –
2 | CC1=C(NCCSSCCN)C(=O)C2=C(C1=O)N1CC3C(N3C)C1(O)C2COC(N)=O (stereo not drawn) [c, 7-N-[2-(2-aminoethyl)dithioethyl]mitomycin D] | 74.3 mg/kg | 3.11 | 1.87
3 | COC12C(COC(N)=O)C3=C(C(=O)C(C)=C(NC4CSSC4)C3=O)N1CC1NC12 (stereo not drawn) [j, 7-N-(1,2-dithiolan-4-yl)mitomycin C] | 5.25 mg/kg | – | –
4 | COC12C(COC(N)=O)C3=C(C(=O)C(C)=C(NCCSSCCO)C3=O)N1CC1NC12 (stereo not drawn) [i, 7-N-[2-(2-hydroxyethyl)dithioethyl]mitomycin C] | ≤ 11.2 mg/kg | ≤2.12 | 2.13
5 | CC1=C(NCCSSCCNC2=C(C)C(=O)C3=C(C2=O)C(COC(N)=O)C2(O)C4C(CN32)N4C)C(=O)C2=C(C1=O)N1CC3C(N3C)C1(O)C2COC(N)=O (stereo not drawn) [a, 7-N,7'-N'-dithiodiethylenedimitomycin D] | > 60 mg/kg | >2.99 | 2.29
6 | COC12C(COC(N)=O)C3=C(C(=O)C(C)=C(NCCSSCCNC4=C(C)C(=O)C5=C(C4=O)C(COC(N)=O)C4(OC)C6NC6CN54)C3=O)N1CC1NC12 (stereo not drawn) [s, 7-N-, 7'-N'-dithiodiethylenedimitomycin C] | 18.8 mg/kg | 2.98 | 2.63
7 | CCSSCCNC1=C(C)C(=O)C2=C(C1=O)C(COC(N)=O)C1(OC)C3NC3CN21 (stereo not drawn) [g, 7-N-(2-ethyldithioethyl)mitomycin C] | 5.4 mg/kg | 1.64 | 3.76
8 | COC12C(COC(N)=O)C3=C(C(=O)C(C)=C(NCCSSCCN)C3=O)N1CC1NC12 (stereo not drawn) [r, 7-N-[2-(2-aminoethyl)dithioethyl)mitomycin C] | 13.5 mg/kg | 0.73 | 1.25
9 | COC12C(COC(N)=O)C3=C(C(=O)C(C)=C(NCCSSCCNC4=C(C)C(=O)C5=C(C4=O)C(COC(N)=O)C4(OC)C6C(CN54)N6C)C3=O)N1CC1C2N1C (stereo not drawn) [t, 7-N, 7'-N'-dithiodiethylenediporfiromycin] | 33.8 mg/kg | 2.15 | 1.34
10 | COC12C(COC(N)=O)C3=C(C(=O)C(C)=C(NCCSSCC(O)CO)C3=O)N1CC1NC12 (stereo not drawn) [o, 7-N-[2-(2,3-dihydroxypropyl)dithioethyl]mitomycin C] | 22.5 mg/kg | – | –
